Data reported in patent US8192761B2, “Granular preparation containing biguanide compound” (Dainippon Sumitomo Pharma Co., Ltd., priority 2005, dated 2012).

assay: Stability testing: appearance (solidification) of fine granules after storage in tightly sealed glass containers; type: physicochemical; conditions: additive added to metformin hydrochloride fine granules, 40° C.
Procedure: Using fine granules obtained in Examples 1-14 and Comparative Examples 1-16, a stability testing was performed. Fine granules (5 g) were each placed in glass containers, which were tightly sealed and stored at 40° C. for 1 week.
Appearance of metformin hydrochloride fine granules after storage at 40° C. for 1 week

| Molecule | solidification-preventive effect |
| --- | --- |
| calcium stearate | did not show a solidification-preventive effect |
| O=P([O-])([O-])O.[Ca+2] [anhydrous dibasic calcium phosphate] | did not show a solidification-preventive effect |
| [Ca+2].[Cl-].[Cl-] [calcium chloride] | a solidification-preventive effect was observed |
| O=C([O-])[O-].[Ca+2] [calcium carbonate] | did not show a solidification-preventive effect |
| magnesium stearate | a solidification-preventive effect was observed |
| OC[C@H]1O[C@@H](O[C@H]2[C@H](O)[C@@H](O)C(O)O[C@@H]2CO)[C@H](O)[C@@H](O)[C@H]1O (stereo partly drawn) [lactose] | did not show a solidification-preventive effect |
